From patent publication US6737383B1, “Herbicidal oxadiazolidines” (priority 1999, dated 2004)

How the values were obtained:
blackgrass = test: Test B pre/postemergence blackgrass; type: in vivo, Alopecurus myosuroides
Procedure, shortened: (§1)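 Test chemicals in a non-phytotoxic solvent mixture with surfactant were sprayed preemergence onto planted seeds and postemergence onto plants 2 to 18 cm tall (1- to 4-leaf stage). After twelve to sixteen days in a greenhouse, injury was visually rated against untreated controls from 0 (no effect) to 10 (complete control).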

surinam grass = test: Test B pre/postemergence surinam grass; type: in vivo, Brachiaria decumbens
Procedure, shortened: as §1

bamyardgrass = test: Test B flood test barnyardgrass; type: in vivo, Echinochloa crus-galli; conditions: for Plant response rating, Barnyardgrass (0 to 10 scale, 0 is no effect, 10 is complete control) / Barnyardgrass plant response rating (0 to 10 scale, 0 is no effect, 10 is complete control): visual evaluation after twelve to sixteen days; for Barnyardgrass plant response rating (0 to 10 scale, 0 is no effect, 10 is complete control): under heading Pre-emergence
Procedure, shortened: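 Read-out is a visual response score from 0 (no effect) to 10 (complete control), assigned by comparison with untreated controls. Treatment was applied at the 2-leaf stage, and plants stayed in the greenhouse for twelve to sixteen days before scoring.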

bedstraw = test: Test B pre/postemergence bedstraw; type: in vivo, Galium aparine
Procedure, shortened: as §1

[1] = Postemergence, Rate 125 g/ha, scale of 0 to 10 where 0 is no effect and 10 is complete control
[2] = Preemergence, Rate 62 g/ha, scale 0 to 10 (0 no effect, 10 complete control)
[3] = Preemergence, Rate 125 g/ha, 0 is no effect, 10 is complete control
[4] = Preemergence, Rate 250 g/ha, scale 0 to 10, 0 is no effect, 10 is complete control
[5] = Preemergence, Rate 500 g/ha, scale 0 to 10 (0 no effect, 10 complete control)
[6] = Rate 62 g/ha, Postemergence, scale of 0 to 10 where 0 is no effect and 10 is complete control
[7] = Rate 250 g/ha, Postemergence, scale 0 to 10, 0 is no effect, 10 is complete control
[8] = Rate 500 g/ha, Postemergence, scale 0 to 10, 0 no effect, 10 complete control
[9] = Postemergence, Rate 125 g/ha, scale 0 to 10, 0 is no effect, 10 is complete control
[10] = Postemergence, Rate 250 g/ha, scale 0 to 10, 0 is no effect, 10 is complete control
[11] = Preemergence, Rate 250 g/ha, scale of 0 to 10 where 0 is no effect and 10 is complete control
[12] = Preemergence, Rate 500 g/ha, scale of 0 to 10 where 0 is no effect and 10 is complete control
[13] = Rate 62 g/ha, flood test species, Pre-emergence
[14] = Rate 125 g/ha, flood test species
[15] = Postemergence, Rate 500 g/ha, scale of 0 to 10 where 0 is no effect and 10 is complete control
[16] = Preemergence, Rate 125 g/ha, scale of 0 to 10 where 0 is no effect and 10 is complete control
[17] = Rate 125 g/ha, Postemergence, scale 0 to 10, 0 is no effect, 10 is complete control
[18] = Postemergence, Rate 62 g/ha, scale 0 to 10, 0 is no effect, 10 is complete control
[19] = Postemergence, Rate 250 g/ha, scale of 0 to 10, 0 is no effect, 10 is complete control
[20] = Preemergence, Rate 250 g/ha, scale 0 to 10 (0 no effect, 10 complete control)

In the case of `CN(C(=O)n1oc(=O)n(Cc2ccccc2)c1=O)c1ccccc1` [Compound 153], the “Blackgrass plant response rating” value (blackgrass; [1]) was 0, the “Blackgrass plant response rating” value (blackgrass; [2]) was 0 and the “Blackgrass plant response rating (0 to 10 scale)” value (blackgrass; [3]) was 0. The “Blackgrass plant response rating” value (blackgrass; [4]) was 0, the “Blackgrass plant response rating” value (blackgrass; [5]) was 0 and the “Blackgrass plant response rating” value (blackgrass; [6]) was 0. The “Plant response rating, Blackgrass” value (blackgrass; [7]) was 0, the “Blackgrass plant response rating” value (blackgrass; Rate 500 g/ha, Postemergence, scale 0 to 10) was 0 and the “B. signalgrass plant response rating” value (surinam grass; [1]) was 0. The “B. signalgrass plant response rating” value (surinam grass; [2]) was 0, the “B. signalgrass plant response rating (0 to 10 scale)” value (surinam grass; [3]) was 0 and the “B. signalgrass plant response rating” value (surinam grass; [4]) was 0. For the same compound, the “B. signalgrass plant response rating” value (surinam grass; [5]) was 0, the “B. signalgrass plant response rating” value (surinam grass; [6]) was 0 and the “Plant response rating, B. signalgrass” value (surinam grass; [7]) was 0. The “B. signalgrass plant response rating” value (surinam grass; Rate 500 g/ha, Postemergence, scale of 0 to 10 where 0 is no effect and 10 is complete control) was 0, the “Barnyardgrass plant response rating” value (bamyardgrass; Postemergence (flood test species), Rate 125 g/ha, scale of 0 to 10 where 0 is no effect and 10 is complete control) was 0 and the “Barnyardgrass plant response rating” value (bamyardgrass; Rate 62 g/ha, Postemergence section, flood test species, scale of 0 to 10 where 0 is no effect and 10 is complete control) was 0. For the same compound, the “Plant response rating, Barnyardgrass” value (bamyardgrass; Rate 250 g/ha, Postemergence (flood test), scale 0 to 10, 0 is no effect, 10 is complete control) was 0, the “Barnyardgrass plant response rating” value (bamyardgrass; Rate 500 g/ha, listed under Postemergence (flood test species), scale 0 to 10, 0 no effect, 10 complete control) was 0 and the “Bedstraw plant response rating” value (bedstraw; [1]) was 0. The “Bedstraw plant response rating” value (bedstraw; [2]) was 0, the “Bedstraw plant response rating (0 to 10 scale)” value (bedstraw; [3]) was 0 and the “Bedstraw plant response rating” value (bedstraw; [4]) was 0. For the same compound, the “Bedstraw plant response rating” value (bedstraw; [5]) was 0, the “Bedstraw plant response rating” value (bedstraw; [6]) was 0 and the “Plant response rating, Bedstraw” value (bedstraw; [7]) was 0. For the same compound, the “Bedstraw plant response rating” value (bedstraw; [8]) was 0.

`CC(C)N(C(=O)n1oc(=O)n(N2CCOCC2)c1=O)c1ccc(F)cc1F` [Compound 384] was tested, and the “Plant response rating, Blackgrass” value (blackgrass; [9]) was 4, the “Plant response rating, Blackgrass” value (blackgrass; [10]) was 9 and the “Plant response rating, Blackgrass” value (blackgrass; [2]) was 0. For the same compound, the “Blackgrass plant response rating (0 to 10 scale)” value (blackgrass; Preemergence, Rate 125 g/ha) was 0, the “Blackgrass plant response rating” value (blackgrass; [11]) was 3 and the “Blackgrass plant response rating” value (blackgrass; [12]) was 7. The “Blackgrass plant response rating” value (blackgrass; [6]) was 3, the “Plant response rating, B. signalgrass” value (surinam grass; [9]) was 3 and the “Plant response rating, B. signalgrass” value (surinam grass; [10]) was 6. For the same compound, the “Plant response rating, B. signalgrass” value (surinam grass; [2]) was 0, the “B. signalgrass plant response rating (0 to 10 scale, 0 is no effect, 10 is complete control)” value (surinam grass; Preemergence, Rate 125 g/ha) was 0 and the “B. signalgrass plant response rating” value (surinam grass; [11]) was 3. For the same compound, the “B. signalgrass plant response rating” value (surinam grass; [12]) was 7, the “B. signalgrass plant response rating” value (surinam grass; [6]) was 0 and the “Plant response rating, B. signalgrass” value (surinam grass; [8]) was 7. For the same compound, the “Plant response rating, Barnyardgrass (0 to 10 scale, 0 is no effect, 10 is complete control)” value (bamyardgrass; [13]) was 0, the “Barnyardgrass plant response rating (0 to 10 scale, 0 is no effect, 10 is complete control)” value (bamyardgrass; [14]) was 0 and the “Barnyardgrass plant response rating” value (bamyardgrass; Rate 250 g/ha, Pre-emergence, flood-test species, scale 0 to 10, 0 is no effect, 10 is complete control) was 0. The “Barnyardgrass plant response rating” value (bamyardgrass; Rate 500 g/ha, Pre-emergence, flood test species, scale 0 to 10 (0 no effect, 10 complete control)) was 0, the “Plant response rating, Bedstraw” value (bedstraw; [9]) was 0 and the “Plant response rating, Bedstraw” value (bedstraw; [10]) was 0. The “Bedstraw plant response rating” value (bedstraw; [6]) was 0 and the “Plant response rating, Bedstraw” value (bedstraw; [8]) was 0.

With `CC(C)N(C(=O)n1oc(=O)n(C(CF)CF)c1=O)c1ccccc1` [Compound 421] the “Plant response rating, Blackgrass” value (blackgrass; [10]) was 8, the “Blackgrass plant response rating” value (blackgrass; [15]) was 10 and the “Plant response rating, Blackgrass” value (blackgrass; [2]) was 8. For the same compound, the “Plant response rating, Blackgrass” value (blackgrass; [16]) was 10, the “Blackgrass plant response rating” value (blackgrass; [11]) was 10 and the “Blackgrass plant response rating” value (blackgrass; Preemergence, Rate 500 g/ha, scale 0 to 10, 0 is no effect, 10 is complete control) was 10. For the same compound, the “Blackgrass plant response rating” value (blackgrass; [6]) was 8, the “Blackgrass plant response rating” value (blackgrass; [17]) was 8 and the “Plant response rating, B. signalgrass” value (surinam grass; [10]) was 7. For the same compound, the “B. signalgrass plant response rating” value (surinam grass; [15]) was 10, the “Plant response rating, B. signalgrass” value (surinam grass; [2]) was 7 and the “Plant response rating, B. signalgrass” value (surinam grass; [16]) was 8. For the same compound, the “B. signalgrass plant response rating” value (surinam grass; [11]) was 9, the “B. signalgrass plant response rating” value (surinam grass; [12]) was 9 and the “B. signalgrass plant response rating” value (surinam grass; [6]) was 0. The “B. signalgrass plant response rating” value (surinam grass; [17]) was 3, the “Barnyardgrass plant response rating” value (bamyardgrass; Postemergence section (flood test species), Rate 500 g/ha, scale of 0 to 10 where 0 is no effect and 10 is complete control) was 3 and the “Barnyardgrass plant response rating” value (bamyardgrass; Rate 62 g/ha, Postemergence (flood test species), scale of 0 to 10 where 0 is no effect and 10 is complete control) was 0. The “Barnyardgrass plant response rating” value (bamyardgrass; Rate 125 g/ha, Postemergence section (flood test species), scale 0 to 10, 0 is no effect, 10 is complete control) was 0, the “Plant response rating, Barnyardgrass” value (bamyardgrass; flood test species, listed under Postemergence, Rate 250 g/ha, scale 0 to 10, 0 is no effect, 10 is complete control) was 2 and the “Plant response rating, Bedstraw” value (bedstraw; [10]) was 7. For the same compound, the “Bedstraw plant response rating” value (bedstraw; [15]) was 7 and the “Bedstraw plant response rating” value (bedstraw; [17]) was 4.

In the case of `CCOC(=O)CC(C(=O)OCC)n1c(=O)on(C(=O)N(c2ccc(F)cc2)C(C)C)c1=O` (stereo not shown) [Compound 615], the “Plant response rating, Blackgrass” value (blackgrass; [18]) was 0, the “Plant response rating, Blackgrass” value (blackgrass; [1]) was 0 and the “Blackgrass plant response rating” value (blackgrass; [19]) was 0. The “Plant response rating, Blackgrass” value (blackgrass; [15]) was 0, the “Blackgrass plant response rating” value (blackgrass; [2]) was 0 and the “Blackgrass plant response rating” value (blackgrass; [16]) was 0. For the same compound, the “Plant response rating, Blackgrass” value (blackgrass; [20]) was 0, the “Blackgrass plant response rating” value (blackgrass; [12]) was 4 and the “Plant response rating, B. signalgrass” value (surinam grass; [18]) was 0. For the same compound, the “Plant response rating, B. signalgrass” value (surinam grass; [1]) was 0, the “B. signalgrass plant response rating” value (surinam grass; [19]) was 0 and the “Plant response rating, B. signalgrass” value (surinam grass; [15]) was 0. The “B. signalgrass plant response rating” value (surinam grass; [2]) was 0, the “B. signalgrass plant response rating” value (surinam grass; [16]) was 0 and the “Plant response rating, B. signalgrass” value (surinam grass; [20]) was 0. The “B. signalgrass plant response rating” value (surinam grass; [12]) was 0, the “Plant response rating, Barnyardgrass (0 to 10 scale, 0 is no effect, 10 is complete control)” value (bamyardgrass; [13]) was 0 and the “Barnyardgrass plant response rating (0 to 10 scale, 0 is no effect, 10 is complete control)” value (bamyardgrass; [14]) was 0. The “Barnyardgrass plant response rating” value (bamyardgrass; Rate 250 g/ha, Pre-emergence (flood test species), scale 0 to 10, 0 is no effect, 10 is complete control) was 0, the “Barnyardgrass plant response rating” value (bamyardgrass; Rate 500 g/ha, Pre-emergence section of Table B, 0 to 10 scale (0 no effect, 10 complete control)) was 0 and the “Plant response rating, Bedstraw” value (bedstraw; [18]) was 0. For the same compound, the “Plant response rating, Bedstraw” value (bedstraw; [1]) was 0, the “Bedstraw plant response rating” value (bedstraw; [2]) was 0 and the “Bedstraw plant response rating” value (bedstraw; [16]) was 0. For the same compound, the “Plant response rating, Bedstraw” value (bedstraw; [20]) was 0 and the “Bedstraw plant response rating” value (bedstraw; [12]) was 0.
